In brackets after ≈: the same amount, converted by molar mass. Entries after “also recorded” stand apart in the source; their conditions may differ. Read-outs that look alike come from different tables or passages of the source.
Key:
Format in all cases: cell-based, human
SKOV-3 cells [1] = assay: MTT assay, SKOV-3; conditions: for IC50: Homo sapiens, read-out: IC50 ± SD, SKOV-3; for Selectivity index (SI), SKOV-3: SI = IC50 HaCaT/IC50 SKOV-3, from MTT results
Protocol: (§1) The human cervical (HeLa S3) and ovarian (SKOV-3) adenocarcinomas, acute human lymphoblastic leukaemia (MOLT-4) cell lines and human keratinocytes (HaCaT) were obtained from the American Type Culture Collection (ATCC, Manassas, VA, USA). […] All the media were supplemented with 10% (v/v) foetal bovine serum (FBS), 2 mM L-glutamine (except for McCoy’s 5 A), 100 units/mL of penicillin, 100 µg/mL of streptomycin (Sigma-Aldrich), and were kept at 37 °C in a humidified 5% CO2 incubator. The viability of all the cells was determined by 3-(4,5-dimethylthiazol-2-yl)-2,5-diphenyltetrazolium bromide (MTT) assay. […] The range of concentrations was selected experimentally to obtain symmetrical sigmoidal shape of dose-response curves generated by GraFit v. 7 (Erithacus Software, West Sussex, UK). […] Following treatment, the media with the extracts, fraction and compounds were removed and replaced with fresh media with MTT (0.5 mg/mL). After 3 h of incubation, the absorption of the formazan solution was measured at 570 nm with a plate reader (Epoch, BioTek, Winooski, VT, USA). The results are expressed as IC50 mean values (±SD, standard deviation) of at least two independent experiments, in six repetitions.

SKOV-3 cells [2] = assay: RTCA (xCELLigence) cell proliferation assay, SKOV-3; conditions: for IC50: Homo sapiens, SK-OV-3, 24 h, read-out: IC50 ± SD, SKOV-3; for IC50 / IC50 ± SD, SKOV-3: RTCA, 24 h; for Selectivity index (SI), SKOV-3: SI = IC50 HaCaT/IC50 SKOV-3, from RTCA results
Protocol: (§2) The human cervical (HeLa S3) and ovarian (SKOV-3) adenocarcinomas, acute human lymphoblastic leukaemia (MOLT-4) cell lines and human keratinocytes (HaCaT) were obtained from the American Type Culture Collection (ATCC, Manassas, VA, USA). The HeLa and HaCaT cells were cultured in Dulbecco’s Modified Eagle’s Medium (DMEM), SKOV-3 and MOLT-4 cells were cultured in McCoy’s 5 A and RPMI 1640 Media, respectively. All the media were supplemented with 10% (v/v) foetal bovine serum (FBS), 2 mM L-glutamine (except for McCoy’s 5 A), 100 units/mL of penicillin, 100 µg/mL of streptomycin (Sigma-Aldrich), and were kept at 37 °C in a humidified 5% CO2 incubator.
(§3) The xCELLigence Real-Time Cell Analyzer Dual Plate (RTCA DP, ACEA Biosciences, San Diego, CA, USA) was used for monitoring of viability of adherent cells (HeLa, SKOV-3 and HaCaT) treated with the extracts (A, B), fraction C and sapogenins for 24 h. The cells were seeded at a density of 2 × 10^4 cells/well into E-plate 16 (ACEA Biosciences). When the cells entered log phase, the extracts, fraction and steroidal saponins were added in the final concentration range of 5.0–120.0 µg/mL, 5.0–100.0 µg/mL, and 1.0–50.0 µg/mL, respectively. The range of concentrations was selected experimentally to obtain symmetrical sigmoidal shape of dose-response curves generated by RTCA software v. 1.2.1 (ACEA Biosciences). The maximal concentrations of the extract A, fraction and compounds solvents in the RTCA experiments were 4.0% (v/v) for methanol and 0.8% (v/v) for DMSO. To obtain viability profiles and calculate IC50 values, we used the RTCA software v. 1.2.1. All the experiments were performed in duplicate, in three independent repeats.

[3] = tested on: SKOV-3, HeLa and MOLT-4 cell lines; assay: Cytotoxicity (MTT) on the tested cell lines, stated jointly; conditions: for cytotoxic activity, in words: NCI guideline: cytotoxic if IC50 under 20–30 μg/mL; for IC50: Homo sapiens, read-out: IC50, tested cell lines
Protocol: The viability of all the cells was determined by 3-(4,5-dimethylthiazol-2-yl)-2,5-diphenyltetrazolium bromide (MTT) assay. […] The range of concentrations was selected experimentally to obtain symmetrical sigmoidal shape of dose-response curves generated by GraFit v. 7 (Erithacus Software, West Sussex, UK). […] Following treatment, the media with the extracts, fraction and compounds were removed and replaced with fresh media with MTT (0.5 mg/mL). After 3 h of incubation, the absorption of the formazan solution was measured at 570 nm with a plate reader (Epoch, BioTek, Winooski, VT, USA). The results are expressed as IC50 mean values (±SD, standard deviation) of at least two independent experiments, in six repetitions. To determine the cytotoxic selectivity of the extracts, fraction and compounds, the selectivity index (SI) was calculated according to the formula: SI = IC50^(non-cancer cells)/IC50^(cancer cells) (Table 1).

HeLa cells [4] = assay: RTCA (xCELLigence) cell proliferation assay, HeLa; conditions: for IC50: Homo sapiens, HeLa, read-out: IC50 ± SD, HeLa; for Selectivity index (SI), HeLa: SI = IC50 HaCaT/IC50 HeLa, from RTCA results
Protocol: as §2, §3

HaCaT cells [5] = assay: MTT assay, HaCaT keratinocytes; conditions: 24 h; for IC50: Homo sapiens, HaCaT, read-out: IC50 ± SD, HaCaT
Protocol: as §1

HaCaT cells [6] = assay: RTCA (xCELLigence) cell proliferation assay, HaCaT; conditions: 24 h; for IC50: Homo sapiens, HaCaT, read-out: IC50 ± SD, HaCaT
Protocol: as §2, §3

HeLa cells [7] = assay: MTT assay, HeLa; conditions: for IC50: Homo sapiens, HeLa, read-out: IC50 ± SD, HeLa; for IC50 / IC50 ± SD, HeLa: 24 h; for Selectivity index (SI), HeLa: SI = IC50 HaCaT/IC50 HeLa, from MTT results
Protocol: as §1

[8] = MTT, stated jointly for the tested cell lines

Row | IC50 (SKOV-3 cells [1]; SK-OV-3, MTT, 24 h) | IC50 (HeLa cells [7]; MTT) | IC50 ± SD, SKOV-3 (SKOV-3 cells [1]; MTT, 24 h) | IC50 ± SD, HeLa (HeLa cells [7]; MTT) | Compound | Selectivity index (SI), SKOV-3 (SKOV-3 cells [1]) | Selectivity index (SI), SKOV-3 (SKOV-3 cells [2]) | cytotoxic activity, in words ([3]; MTT) | Selectivity index (SI), HeLa (HeLa cells [4]) | IC50 (HaCaT cells [5]; MTT) | Selectivity index (SI), HeLa (HeLa cells [7]) | IC50, tested cell lines [3, 8] | IC50 ± SD, HaCaT (HaCaT cells [5]; MTT) | other results
1 | 19.3 ± 0.97 µg/mL (≈ 46.5 µM) | 16.3 ± 0.26 µg/mL (≈ 39.3 µM) | – | – | C[C@@H]1CC[C@@]2(OC1)O[C@H]1C[C@H]3[C@@H]4CC=C5C[C@@H](O)CC[C@]5(C)[C@H]4CC[C@]3(C)[C@H]1[C@@H]2C [Diosgenin] | 0.64 | 1.38 | cytotoxic; also recorded: active | 0.84 | 12.4 ± 0.5 µg/mL (≈ 29.9 µM) | 0.76 | – | – | IC50 (SKOV-3 cells [2]): ~20 µg/mL (≈ 48.2 µM); IC50 ± SD, SKOV-3 (SKOV-3 cells [2]): 16.90 ± 2.89 µg/mL (≈ 40.8 µM); IC50 (HeLa cells [4]; RTCA, 24 h): 28 ± 2.4 µg/mL (≈ 67.5 µM); IC50 (HaCaT cells [6]): 23.4 ± 0.42 µg/mL (≈ 56.4 µM)
2 | > 50 µg/mL | > 50 µg/mL | – | – | O=c1cc(-c2ccc(O)c(O)c2)oc2cc(O)c([C@@H]3O[C@H](CO)[C@@H](O)[C@H](O)[C@H]3O)c(O)c12 [Isoorientin] | – | – | inactive | – | > 50 µg/mL | – | – | – | IC50 [3, 8]: > 50 µg/mL
3 | – | – | – | – | O=c1cc(-c2ccc(O)c(O)c2)oc2c([C@@H]3O[C@H](CO)[C@@H](O)[C@H](O)[C@H]3O)c(O)cc(O)c12 [Orientin] | – | – | inactive | – | – | – | – | – | IC50 (SKOV-3 cells [1]; SK-OV-3, 24 h): > 50 µg/mL; IC50 [3]: > 50 µg/mL; IC50 (HaCaT cells [5]): > 50 µg/mL; IC50 (HeLa cells [7]): > 50 µg/mL
4 | > 50 µg/mL | > 50 µg/mL | – | – | C[n+]1cccc(C(=O)[O-])c1 [Trigonelline] | – | – | – | – | > 50 µg/mL | – | – | – | IC50 [3, 8]: > 50 µg/mL
5 | – | – | >50 µg/mL | >50 µg/mL | O=c1cc(-c2ccc(O)cc2)oc2c([C@@H]3O[C@H](CO)[C@@H](O)[C@H](O)[C@H]3O)c(O)c([C@@H]3OC[C@@H](O)[C@H](O)[C@H]3O)c(O)c12 [Vicenin-1] | – | – | – | – | – | – | > 50 µg/mL | >50 µg/mL | –
6 | – | – | >50 µg/mL | >50 µg/mL | O=c1cc(-c2ccc(O)cc2)oc2c([C@@H]3O[C@H](CO)[C@@H](O)[C@H](O)[C@H]3O)c(O)c([C@@H]3O[C@H](CO)[C@@H](O)[C@H](O)[C@H]3O)c(O)c12 [Vicenin-2] | – | – | inactive | – | – | – | > 50 µg/mL | >50 µg/mL | –
7 | – | – | >50 µg/mL | >50 µg/mL | O=c1cc(-c2ccc(O)cc2)oc2c([C@@H]3OC[C@@H](O)[C@H](O)[C@H]3O)c(O)c([C@@H]3O[C@H](CO)[C@@H](O)[C@H](O)[C@H]3O)c(O)c12 [Vicenin-3] | – | – | inactive | – | – | – | > 50 µg/mL | >50 µg/mL | –
8 | – | – | – | – | O=c1cc(-c2ccc(O)cc2)oc2c([C@@H]3O[C@H](CO)[C@@H](O)[C@H](O)[C@H]3O)c(O)cc(O)c12 [Vitexin] | – | – | inactive | – | – | – | – | – | IC50 (SKOV-3 cells [1]; SK-OV-3, 24 h): > 50 µg/mL; IC50 [3]: > 50 µg/mL; IC50 (HaCaT cells [5]): > 50 µg/mL

Row | Compound | IC50 (SKOV-3 cells [1]; SK-OV-3, MTT, 24 h) | IC50 (HeLa cells [7]; MTT) | IC50 ± SD, SKOV-3 (SKOV-3 cells [1]; MTT, 24 h) | IC50 ± SD, HeLa (HeLa cells [7]; MTT) | Selectivity index (SI), SKOV-3 (SKOV-3 cells [1]) | Selectivity index (SI), SKOV-3 (SKOV-3 cells [2]) | cytotoxic activity, in words ([3]; MTT) | Selectivity index (SI), HeLa (HeLa cells [4]) | IC50 (HaCaT cells [5]; MTT) | Selectivity index (SI), HeLa (HeLa cells [7]) | IC50, tested cell lines [3, 8] | IC50 ± SD, HaCaT (HaCaT cells [5]; MTT) | other results
9 | C[C@@H]1CC[C@@]2(OC1)O[C@H]1C[C@H]3[C@@H]4CC[C@H]5C[C@@H](O)CC[C@]5(C)[C@H]4CC[C@]3(C)[C@H]1[C@@H]2C [Tigogenin] | > 50 µg/mL | 35.6 ± 3.69 µg/mL (≈ 85.4 µM) | lowest activity | – | < 0.62 | 1.16 | active | 1.30 | 31.1 ± 2.31 µg/mL (≈ 74.6 µM) | 0.87 | – | – | IC50 (SKOV-3 cells [2]): 28.3 ± 3.46 µg/mL (≈ 67.9 µM); IC50 (HeLa cells [4]; RTCA, 24 h): 25.1 ± 0.12 µg/mL (≈ 60.2 µM); IC50 (HaCaT cells [6]): 32.7 ± 0.07 µg/mL (≈ 78.5 µM)
10 | C[C@H]1CC[C@@]2(OC1)O[C@H]1C[C@H]3[C@@H]4CC=C5C[C@@H](O)CC[C@]5(C)[C@H]4CC[C@]3(C)[C@H]1[C@@H]2C [Yamogenin] | – | – | 16.70 ± 0.08 µg/mL (≈ 40.3 µM) | 16.5 ± 0.59 µg/mL (≈ 39.8 µM) | 0.58 | 0.69 | cytotoxic; also recorded: active | 0.84 | – | 0.59 | – | 9.70 ± 0.91 µg/mL (≈ 23.4 µM) | IC50 ± SD, SKOV-3 (SKOV-3 cells [2]): 23.90 ± 1.48 µg/mL (≈ 57.6 µM); IC50 ± SD, SKOV-3 (SKOV-3 cells [2]; listed as yamogenin): about 20 μg/mL; IC50 ± SD, HeLa (HeLa cells [4]; RTCA, 24 h): 19.60 ± 1.41 µg/mL (≈ 47.3 µM); IC50 ± SD, HaCaT (HaCaT cells [6]): 16.40 ± 1.41 µg/mL (≈ 39.6 µM)

Reference: paper PMC8057092, “Cytotoxic activity of standardized extracts, a fraction, and individual secondary metabolites from fenugreek seeds against SKOV-3, HeLa and MOLT-4 cell lines” (Pharmaceutical Biology, 2021)
